Laboratory results as given in paper PMC12211128, “Safety, tolerability, pharmacokinetic and pharmacodynamic effects of the muscarinic M1 positive allosteric modulator VU0467319 for Alzheimer’s disease: a single ascending-dose study in healthy participants” (Alzheimer's Research & Therapy, 2025).
“Also recorded” adds a separate entry of the source.

Test system: healthy participants
Experiment: Treatment emergent adverse event (TEAE) monitoring
Type: in vivo, human
Protocol: Safety and tolerability were assessed throughout the study via treatment emergent adverse event (TEAE) monitoring, vital signs (blood pressure, pulse rate, respiration rate, oral temperature), physical examinations, 12-lead ECGs, and clinical laboratory parameters including complete blood count (CBC), coagulation, hematology, clinical chemistry assessments, and urinalysis. Safety laboratory tests were drawn at pre-dose and at 5, 24, 36 and 144-hours post-dose for 60–400 mg Cohorts; and at 24, 48, 72 and 144-hours post-dose for the 600 mg and Food Effect Cohort. ECG assessments were conducted at pre-dose and at 1, 2, 3, 5, 9, 24, 36 and 144-hours post-dose for 60–400 mg Cohorts; and at 2, 3, 5, 9, 24, 36, 72 and 144-hours post-dose for the 600 mg and Food Effect Cohort. All adverse events (AEs) were assessed by the investigator for severity and relationship to study medication or study procedures.
All AEs were coded using the Medical Dictionary for Regulatory Activities (MedDRA) version 22.0. All AEs were listed, and the emergence of TEAEs were categorized by body system affected and analyzed to determine whether they were related to treatment. Analysis of TEAEs for VU319 vs. Placebo were completed using Fisher’s Exact Test. Assessment of the grade of toxicity or relation to the study drug for each adverse event was determined by the Investigator. Changes in vital signs, physical examination, and laboratory tests were collected. Changes in vital signs from pre-dose to 48 h post-dose were placed into 10-time bins and assessed using mixed-measures ANOVA with the time bins as the within-subjects factor and dose as the between-subjects factor. To assess changes is QT analyses with respect to VU319 concentration, we calculated the maximal change in QTcF from baseline for each participant. We assessed the relationship between these maximal changes from baseline with the participant’s Cmax using Pearson correlations. Outlier QTcF values (> 450 ms) were also assessed against PK concentrations to examine it there was any relationship using Pearson correlations. Analyses of safety data was completed by SAS version 9.4.

SMILES: Cn1cc2c(-c3cc(F)c(CN4Cc5ncccc5C4=O)c(F)c3)cccc2n1 [VU319]
- TEAEs, VU319 vs placebo (Fisher's Exact Tests) (in vivo): did not show a significant difference
- number of TEAEs across the 5 active dose cohorts (in vivo): 33
- serious TEAEs, deaths, discontinuations (single oral doses 60-600 mg): No TEAE was rated as serious; also recorded: no serious TEAEs or discontinuations occurred; also recorded: no deaths, serious TEAEs, or TEAEs leading to discontinuation
- tolerability (single oral doses 60 to 600 mg, healthy volunteers aged 18-55): Tolerability was good; also recorded: generally well tolerated
- maximum tolerated dose (MTD) (single oral doses up to 600 mg): not achieved
